According to paper PMC4965148 (PLoS ONE, 2016):
Where “and” joins values, the source holds several entries; their conditions need not be identical. Identical values can stand only once. Like-named read-outs stand apart in the source and are kept apart here.

What was measured:
[1] = parameters: method as in PMID 21337354; conditions: rodents; cited from earlier work
HEK293/Human α7 nAChR = HEK293/Human α7 nAChR (Homo sapiens, UniProt P36544); test: Ca2+ flux (FLIPR) agonist assay; format: cell-based
Experimental: Functional activity was examined using Ca^2+-sensitive, dye-based, microfluorometric assays read on the FLIPR Tetra plate reader platform (Molecular Devices, CA, USA). Cells were plated in 384-well black, clear-bottomed Greiner poly-D-lysine coated plates at a density of ~25 K cells/well and incubated at 29°C for 48 h. Prior to assay, media contents were removed and cells incubated in assay buffer containing 5μM final Fluo-4 dye for 90 min. […] Test compounds were solubilized in DMSO and serially diluted in NUNC 384-well plates prior to addition of assay buffer (5.3 mM KCl + 140 mM NaCl + 20 mM Hepes + 25 mM CaCl2 + 1 mM MgCl2 + 10 μM atropine final concentration). Compounds diluted in assay buffer were added to the assay plate by the FLIPR and read for approximately 2 min. […] Offline transformation of concentration response data was done using a 4 parameter logistic fit using a Bristol-Myers Squibb proprietary informatics software suite.

HEK293/Human 5-HT3A = target: T1, HEK293/Human 5-HT3A (Homo sapiens, UniProt P46098); test: Ca2+ flux (FLIPR) 5-HT3A antagonist assay; format: cell-based
T1 construct: expressed in transfected cells; host or cells: HEK293 (made by Bristol-Myers Squibb)
T1 sequence (P46098 24-478): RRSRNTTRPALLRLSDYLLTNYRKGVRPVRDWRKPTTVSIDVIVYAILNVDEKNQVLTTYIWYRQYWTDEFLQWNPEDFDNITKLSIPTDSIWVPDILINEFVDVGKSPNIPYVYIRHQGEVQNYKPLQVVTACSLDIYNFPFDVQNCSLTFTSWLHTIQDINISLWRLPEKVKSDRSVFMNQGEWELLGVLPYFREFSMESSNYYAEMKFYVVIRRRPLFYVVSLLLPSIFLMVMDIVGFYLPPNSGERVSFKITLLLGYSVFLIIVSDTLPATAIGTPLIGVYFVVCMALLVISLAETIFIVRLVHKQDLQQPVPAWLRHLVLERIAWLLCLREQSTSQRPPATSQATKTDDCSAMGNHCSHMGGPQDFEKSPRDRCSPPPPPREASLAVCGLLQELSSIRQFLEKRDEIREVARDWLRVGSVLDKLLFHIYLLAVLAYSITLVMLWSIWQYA
Experimental: Functional activity was examined using Ca^2+-sensitive, dye-based, microfluorometric assays read on the FLIPR Tetra plate reader platform (Molecular Devices, CA, USA). Cells were plated in 384-well black, clear-bottomed Greiner poly-D-lysine coated plates at a density of ~25 K cells/well and incubated at 29°C for 48 h. Prior to assay, media contents were removed and cells incubated in assay buffer containing 5μM final Fluo-4 dye for 90 min. For nAChR assays, the dye-loading buffer was HBSS (#14175 Life Technologies) supplemented with 20 mM HEPES, 0.5 mM CaCl2, 1 mM MgCl2 and 10 μM atropine (final concentration). Test compounds were solubilized in DMSO and serially diluted in NUNC 384-well plates prior to addition of assay buffer (5.3 mM KCl + 140 mM NaCl + 20 mM Hepes + 25 mM CaCl2 + 1 mM MgCl2 + 10 μM atropine final concentration). Compounds diluted in assay buffer were added to the assay plate by the FLIPR and read for approximately 2 min. […] For 5-HT3A antagonist studies, the dye loading and compound diluent buffer was HBSS (#14025 Life Technologies) supplemented with 20 mM HEPES (final concentration) and the concentration of 5-HT used in the assay was 2 μM. Offline transformation of concentration response data was done using a 4 parameter logistic fit using a Bristol-Myers Squibb proprietary informatics software suite.

Rat Brain α7 nAChR = Rat Brain α7 nAChR (Rattus norvegicus, UniProt Q05941); test: [3H]-A-585539 filtration binding
[2] = target: T2, HEK293/rat α7 nAChR cells (Rattus norvegicus, UniProt Q05941); test: Whole cell voltage clamp electrophysiology; format: cell-based; conditions: n = 6
T2 construct: expressed in transfected cells
Experimental: Whole-cell voltage clamp studies were conducted on HEK293/rat α7 or HEK293/human α7 nAChR cells. […] Atropine (1 μM) was included in the bathing solution. […] Cells were voltage clamped at a holding potential of -90 mV. Using the Dynaflow microfluidic perfusion system (Cellectricon; flow 26 μl/min) responses to a 300 ms application of ACh or α7 nAChR agonists were measured. Currents were filtered at 2 kHz and sampled at 10 kHz using an EPC-9 amplifier and HEKA Pulse/Patchmaster software. […] The peak current amplitude and net charge crossing the membrane (i.e. the area under the current response curve) induced by agonist application were measured using Clampfit (pClamp Suite) and normalized to the maximal response induced by ACh (3 mM ACh for peak current amplitude and 300 μM ACh for net charge).

C57Bl/6 mice = test: Mouse 24 h novel object recognition; format: in vivo
Experimental: The procedure followed a 3 day protocol. On day 1 (habituation) individual mice were habituated to the testing chamber (a white PVC box 48 cm long x 38 cm wide x 20 cm high with brown linoleum flooring) for 15 min then returned to their home cage. On day 2 (training) individual mice were returned to the testing chamber containing 2 identical objects and allowed to explore. The training session lasted for up to 15 min or until the mouse explored the objects for a total of 60 s. A maximal trial duration of 15 min was used to accommodate mice that are slower to initiate exploration. On day 3 (testing) individual mice were returned to the testing chamber 24 h later containing 1 familiar object encountered in the previous training session and one novel object. The testing session lasted up to 10 min or until the mouse explored the objects for a total of 60 s. The objects used for these studies were made of duplex legos approximately 3 inches high x 1 inch wide; one object was a multicolored rectangle and the second object was a solid color rectangle with a short arm attached. The location of the objects was counterbalanced between animals but was consistent within animals so that only the object itself was novel on the test session. The familiar object used during the test session was the same object used during training and all objects were thoroughly cleaned between sessions and between subjects. Animal behavior was video recorded during both training and testing and the amount of time spent exploring the objects determined using Cleversys software. Object exploration was only scored when the animal’s nose was within 1 cm of the object. […] The vehicle was chosen for sc dosing to ensure that BMS-933043 was dosed as a solution and not a suspension. […] For each subject the % discrimination index (DI) was calculated for both the training and test session as follows: %DI training = (time exploring object 1—time exploring object 2)/(total time exploring object 1 + object 2) X 100; %DI testing = (time exploring novel object—time exploring familiar object)/(total time exploring novel + familiar object) X 100.

α7 nAChR = target: T3, α7 nAChR (Mus musculus, UniProt P49582); test: Ex vivo α7 nAChR occupancy ([3H]-A-585539); format: in vivo; conditions: mouse, sc, mice
T3 construct: One forebrain hemisphere from each animal was thawed and homogenized in assay buffer; from tissue; host or cells: forebrain homogenate of dosed male C57Bl/6 mice
Experimental: Occupancy determinations were made either on completion of behavioral testing or in satellite groups of animals dosed in parallel with behavioral testing. At specified time points after dosing, the forebrain (for occupancy), the remaining hindbrain (for brain drug exposure) and plasma were collected, frozen in chilled isopentane and stored at -80°C until assayed. […] Homogenized tissue aliquots were frozen immediately and stored at -80°C. […] The filters were washed with ice-cold assay buffer, punched into a clear plate and 200 μl scintillation fluid added per well. Bound radioactivity was measured using a Wallac Microbeta liquid scintillation counter. Specific binding was calculated by subtracting the value of the non-specific binding from that of the total binding in each sample. The percent occupancy was calculated as [1 –(specific binding in drug treated mice/specific binding in vehicle treated mice)] x 100.

[3] = Plasma and brain concentrations after dosing; format: in vivo, mouse; conditions: for Kp: mouse, brain/plasma
Experimental: Occupancy determinations were made either on completion of behavioral testing or in satellite groups of animals dosed in parallel with behavioral testing. At specified time points after dosing, the forebrain (for occupancy), the remaining hindbrain (for brain drug exposure) and plasma were collected, frozen in chilled isopentane and stored at -80°C until assayed. […] Homogenized tissue aliquots were frozen immediately and stored at -80°C. […] Non-specific binding was defined by adding 25 μM MLA to wells containing tissues from vehicle-treated animals. […] The filters were washed with ice-cold assay buffer, punched into a clear plate and 200 μl scintillation fluid added per well. Bound radioactivity was measured using a Wallac Microbeta liquid scintillation counter. Specific binding was calculated by subtracting the value of the non-specific binding from that of the total binding in each sample. The percent occupancy was calculated as [1 –(specific binding in drug treated mice/specific binding in vehicle treated mice)] x 100.
In brief, 50 μL of the plasma sample was extracted by protein precipitation with 150 μL acetonitrile containing an internal standard and 5 μL of supernatant injected into the LC-MS/MS system. Analytes were separated by reversed phase chromatography and detection of each analyte was achieved through selected reaction monitoring mode of mass spectrometry.

[4] = NS-6740 (10 mg/kg sc) 10 min prior to BMS-933043 (0.3 mg/kg sc)

Sequence of Rat Brain α7 nAChR (Q05941 23-502): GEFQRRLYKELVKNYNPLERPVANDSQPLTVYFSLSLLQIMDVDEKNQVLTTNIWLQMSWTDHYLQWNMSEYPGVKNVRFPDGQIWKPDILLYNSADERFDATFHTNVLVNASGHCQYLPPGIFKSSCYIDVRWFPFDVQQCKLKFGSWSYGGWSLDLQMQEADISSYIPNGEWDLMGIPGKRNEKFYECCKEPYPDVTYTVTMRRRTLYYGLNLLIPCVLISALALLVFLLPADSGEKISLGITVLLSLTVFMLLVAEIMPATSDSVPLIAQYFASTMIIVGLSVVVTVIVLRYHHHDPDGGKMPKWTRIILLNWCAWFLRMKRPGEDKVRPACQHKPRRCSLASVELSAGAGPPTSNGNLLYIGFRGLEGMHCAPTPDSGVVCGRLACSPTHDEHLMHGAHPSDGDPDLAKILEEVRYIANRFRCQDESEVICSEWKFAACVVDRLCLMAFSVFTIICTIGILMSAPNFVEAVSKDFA
T3 sequence (P49582 23-502): as the sequence (Q05941 23-502) above, with A402T counted along it
T2 sequence (Q05941 23-502): as the sequence (Q05941 23-502) above
Sequence of HEK293/Human α7 nAChR (P36544 23-502): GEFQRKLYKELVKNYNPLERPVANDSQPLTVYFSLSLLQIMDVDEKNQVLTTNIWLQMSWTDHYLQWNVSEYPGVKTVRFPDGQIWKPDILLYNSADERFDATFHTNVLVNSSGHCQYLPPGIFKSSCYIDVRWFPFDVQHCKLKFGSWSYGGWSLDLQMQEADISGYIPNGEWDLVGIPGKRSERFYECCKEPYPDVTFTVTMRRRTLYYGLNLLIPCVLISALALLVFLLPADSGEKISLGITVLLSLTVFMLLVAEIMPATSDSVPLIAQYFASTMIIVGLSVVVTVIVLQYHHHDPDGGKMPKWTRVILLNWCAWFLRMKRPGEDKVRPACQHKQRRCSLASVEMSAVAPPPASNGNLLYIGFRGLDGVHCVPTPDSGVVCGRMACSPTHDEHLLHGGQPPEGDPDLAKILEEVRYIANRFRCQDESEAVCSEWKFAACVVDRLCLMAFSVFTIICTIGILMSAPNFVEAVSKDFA
Sequence of HEK293/Human α7 nAChR (Q7Z5B4 29-369 partner): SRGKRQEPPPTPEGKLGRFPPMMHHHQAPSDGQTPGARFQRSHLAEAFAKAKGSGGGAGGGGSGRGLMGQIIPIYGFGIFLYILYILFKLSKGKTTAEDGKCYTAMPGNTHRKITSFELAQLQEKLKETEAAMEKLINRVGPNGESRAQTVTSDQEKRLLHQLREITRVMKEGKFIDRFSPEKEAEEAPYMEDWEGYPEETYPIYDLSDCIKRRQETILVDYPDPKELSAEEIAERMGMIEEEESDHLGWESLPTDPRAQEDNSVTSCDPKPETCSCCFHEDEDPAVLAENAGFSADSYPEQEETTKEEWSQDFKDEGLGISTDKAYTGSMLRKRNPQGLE

Structure (SMILES): CCN1C[C@]2(COC(=O)c3ccccc3N3C(=O)C[C@H](C)C3=O)CC[C@H](OC)[C@@]34[C@@H]5C[C@H]6[C@H](OC)[C@@H]5[C@](O)(C[C@@H]6OC)[C@@](O)([C@@H](OC)[C@H]23)[C@@H]14 [MLA, methyllycaconitine]
- brain/plasma [1]: 0.06–0.09

Structure (SMILES): O=C(c1ccc(-c2cccc(C(F)(F)F)c2)o1)N1CCN2CCC1CC2 [NS-6740, 4-[[5-[3-(trifluoromethyl)phenyl]-2-furanyl]carbonyl]-1,4-diazabicyclo[3.2.2]nonane]
- α7 nAChR agonist activity (HEK293/Human α7 nAChR): no α7 nAChR agonist activity
- IC50 (HEK293/Human 5-HT3A; FLIPR, individual determinations, read-out: Human 5-HT3A IC50 values (individual)): 6.21 µM and 5.69 µM and 5.32 µM and 5.91 µM and 2.39 µM and 3.11 µM and 4.7 µM and 5.68 µM and 4.43 µM
- IC50 (HEK293/Human 5-HT3A; HEK293/Human 5-HT3A Mean ± SD IC50, Ca2+ flux (FLIPR), antagonism of 2 μM 5-HT): 4.83 µM
- Ki (Rat Brain α7 nAChR; displacement of [3H]-A-585539, read-out: Rat Brain α7 nAChR Mean ± SD Ki): 0.00285 ± 0.00044 µM
- Ki (Rat Brain α7 nAChR; individual determinations, read-out: Rat Brain α7 nAChR Ki (individual)): 0.00245 µM and 0.00278 µM and 0.00333 µM
- IC50 ([2]; IC50 for inhibition of BMS-933043 (10 μM) net charge crossing the membrane): 0.255 µM
- IC50 ([2]; IC50 for inhibition of BMS-933043 (10 μM) peak current response): 0.283 ± 0.033 µM
- 24 h recognition memory after NS-6740 alone (C57Bl/6 mice; 3 or 10 mg/kg sc): did not show improved 24 h recognition memory
- effect of pretreatment on BMS-933043 (0.3 mg/kg, sc) improved discrimination index (C57Bl/6 mice; NS-6740 10 mg/kg sc): abolished the improved discrimination index
- % Discrimination Index (DI) Testing (day 3) Mean ± SEM (C57Bl/6 mice; [4]): 3.83 ± 4.25%
- % Discrimination Index (DI) Training (day 2) Mean ± SEM (C57Bl/6 mice; [4]): -4.82 ± 7.09%
- % Discrimination Index (DI) Testing (day 3) Mean ± SEM (C57Bl/6 mice; NS-6740 (10 mg/kg sc)/Vehicle): -1.02 ± 4.40%
- % Discrimination Index (DI) Training (day 2) Mean ± SEM (C57Bl/6 mice; NS-6740 (10 mg/kg sc)/Vehicle): 6.43 ± 5.54%
- receptor occupancy at 3 mg/kg (α7 nAChR; read-out: ex vivo α7 nAChR occupancy, NS-6740 3 mg/kg sc): 89%
- receptor occupancy at 10 mg/kg (α7 nAChR; read-out: ex vivo α7 nAChR occupancy, NS-6740 10 mg/kg sc): 98%
- Brain Mean ± SD ([3]; NS-6740 0.3 mg/kg sc, mice): 316 ± 43 nM
- Plasma Mean ± SD ([3]; NS-6740 0.3 mg/kg sc, mice): 37 ± 2 nM
- Brain Mean ± SD ([3]; NS-6740 1 mg/kg sc, mice): 1,125 ± 66 nM
- Plasma Mean ± SD ([3]; NS-6740 1 mg/kg sc, mice): 130 ± 7 nM
- Brain Mean ± SD ([3]; NS-6740 3 mg/kg sc, mice): 3,998 ± 273 nM
- Plasma Mean ± SD ([3]; NS-6740 3 mg/kg sc, mice): 544 ± 214 nM
- Brain Mean ± SD ([3]; NS-6740 10 mg/kg sc, mice): 17,725 ± 1,928 nM
- Plasma Mean ± SD ([3]; NS-6740 10 mg/kg sc, mice): 2,083 ± 426 nM
- Kp ([3]; NS-6740 0.3 mg/kg sc, mice, read-out: Brain/Plasma Ratio): 8.54
- Kp ([3]; NS-6740 1 mg/kg sc, mice, read-out: Brain/Plasma Ratio): 8.65
- Kp ([3]; NS-6740 3 mg/kg sc, mice, read-out: Brain/Plasma Ratio): 7.35
- Kp ([3]; NS-6740 10 mg/kg sc, mice, read-out: Brain/Plasma Ratio): 8.51
- Kp ([3]; NS-6740, mice sc, read-out: average brain/plasma ratio): > 8
